Test results reported in PMC10296591, “Potent GST Ketosteroid Isomerase Activity Relevant to Ecdysteroidogenesis in the Malaria Vector Anopheles gambiae” (Biomolecules, 2023).

Experiments:
Format in all cases: biochemical
[1] = molecular target: T1, Nobo (Anopheles gambiae, UniProt Q8WQJ5); assay: spectrophotometric specific activity of purified enzyme
T1 construct: gene GSTe8
T1 sequence (Q8WQJ5 1-217): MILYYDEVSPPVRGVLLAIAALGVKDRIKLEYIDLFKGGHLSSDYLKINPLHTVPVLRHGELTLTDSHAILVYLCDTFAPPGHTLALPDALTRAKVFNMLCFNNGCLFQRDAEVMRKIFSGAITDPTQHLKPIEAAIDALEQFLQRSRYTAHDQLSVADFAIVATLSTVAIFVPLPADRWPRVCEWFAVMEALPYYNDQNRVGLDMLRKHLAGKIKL

[2] = molecular target: T1, Nobo; assay: steady-state kinetics of double-bond isomerization by purified enzyme (kcat/Km)
[3] = molecular target: T2, Nobo D111N (Anopheles gambiae, UniProt Q8WQJ5, D111N); assay: spectrophotometric inhibition assay of purified mutant enzyme with DCNB and glutathione
T2 construct: gene GSTe8; N-terminal hexahistidine tag

[4] = molecular target: T1, Nobo; assay: spectrophotometric inhibition assay of purified enzyme with DCNB and glutathione

Structure (SMILES) | specific activity [1] | other results
CC(C)(OO)c1ccccc1 [CuOOH, cumene hydroperoxide] | 5.0 ± 0.5 μmol/min per mg | 
C=CCN=C=S [AITC, allyl isothiocyanate] | 3.3 ± 0.4 μmol/min per mg | 
O=[N+]([O-])c1ccc(Cl)c(Cl)c1 [DCNB, 1,2-dichloro-4-nitrobenzene] | 16.4 ± 1.9 μmol/min per mg | 
O=[N+]([O-])c1ccc(Cl)c([N+](=O)[O-])c1 [CDNB, 1-chloro-2,4-dinitribenzene] | 24.7 ± 3.4 μmol/min per mg | 
C[C@]12CCC(=O)CC1=CC[C@@H]1[C@@H]2CC[C@]2(C)C(=O)CC[C@@H]12 [5-AD, 5-androsten-3,17-dione] |  | steady-state kinetics of double-bond isomerization by purified enzyme (kcat/Km) [2]: (6.9 ± 0.3) × 10^6 M^−1s^−1
S=C=NCCc1ccccc1 [PEITC, phenethyl isothiocyanate] | 0.4 ± 0.1 μmol/min per mg | 
C[C@]12CC[C@@H]3c4ccc(O)cc4CC[C@H]3[C@@H]1CC[C@@H]2O [17β-estradiol] |  | IC50 [3]: 15.5 ± 6 µM; IC50 [4]: 0.17 ± 0.03 µM
